Experiments:
[1] = biological target: T1, glycosyltransferase in crude enzyme extracted from petals of a delphinium (variety: "marine blue") (Delphinium grandiflorum, UniProt E3W9M3); experiment: Detection of glycosyl transfer reaction with delphinium petal crude enzyme (HPLC); assay type: biochemical, delphinium (Delphinium grandiflorum L.); details: cyanidin 3-O-β-glucoside 200 μM, sugar donor 1 mM, pH 5.6, 30° C., 15 minutes
T1 construct: Glycosyltransferase activity was examined using a crude enzyme extracted from; from tissue
T1 sequence (E3W9M3 26-505): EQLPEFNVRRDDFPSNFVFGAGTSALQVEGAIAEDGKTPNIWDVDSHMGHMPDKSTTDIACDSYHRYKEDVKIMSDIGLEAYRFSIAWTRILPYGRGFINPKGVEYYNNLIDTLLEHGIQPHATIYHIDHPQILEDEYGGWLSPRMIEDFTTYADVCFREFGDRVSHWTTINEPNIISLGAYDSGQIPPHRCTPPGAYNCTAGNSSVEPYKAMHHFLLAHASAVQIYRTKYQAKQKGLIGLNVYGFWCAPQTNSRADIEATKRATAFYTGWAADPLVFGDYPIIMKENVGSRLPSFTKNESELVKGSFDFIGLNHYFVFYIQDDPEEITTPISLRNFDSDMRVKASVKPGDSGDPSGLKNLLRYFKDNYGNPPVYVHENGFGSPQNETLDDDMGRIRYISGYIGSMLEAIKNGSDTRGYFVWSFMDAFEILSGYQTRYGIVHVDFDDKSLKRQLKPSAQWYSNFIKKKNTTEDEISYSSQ
Method: Glycosyltransferase activity was examined using a crude enzyme extracted from pink petals of a carnation (variety: “Beam Cherry”) or petals of a delphinium (variety: “marine blue”) in the manner described in Example 1. Cyanidin 3-O-β-glucoside (final concentration: 200 μM) and 1-O-β-p-hydroxybenzoyl glucose (final concentration: 1 mM) were used as a receptor and a sugar donor, respectively. The pH was adjusted to 5.6 with a citric acid buffer, followed by a glycosyltransferase reaction at 30° C. for 15 minutes. The reaction was terminated with phosphoric acid (final concentration: 1%), followed by centrifugation for the removal of insoluble matter. Then, the supernatant was analyzed by HPLC. HPLC analysis was carried out using a 1.5% phosphoric acid aqueous solution and methanol as eluents and a Wakopak Handy ODS column (4.6×250 mm, Wako Pure Chemical Industries, Ltd.). Separation was carried out at a flow rate of 1 ml/min with a linear gradient of 20% to 55% methanol (20 minutes). A reaction product was confirmed using a photodiode array detector.

[2] = biological target: T2, crude enzyme obtained from pink petals of a carnation (variety: "Beam Cherry") (glycosyltransferase) (Dianthus caryophyllus, UniProt E3W9M2); experiment: Relative activity of crude carnation petal enzyme on each sugar donor (glycosyl transfer to cyanidin 3-glucoside, HPLC); assay type: biochemical; details: crude enzyme 61 μg, cyanidin β-glucoside 200 μM, sugar donor 500 μM, citric acid buffer pH 5.6, 30° C., 15 minutes, HPLC area of cyanidin 3,5-O-β diglucoside
T2 construct: Thus, a crude enzyme liquid was obtained; from tissue; host or cells: pink petals of carnation, variety Beam Cherry (ammonium sulfate precipitate, desalted)
T2 sequence (E3W9M2 31-502): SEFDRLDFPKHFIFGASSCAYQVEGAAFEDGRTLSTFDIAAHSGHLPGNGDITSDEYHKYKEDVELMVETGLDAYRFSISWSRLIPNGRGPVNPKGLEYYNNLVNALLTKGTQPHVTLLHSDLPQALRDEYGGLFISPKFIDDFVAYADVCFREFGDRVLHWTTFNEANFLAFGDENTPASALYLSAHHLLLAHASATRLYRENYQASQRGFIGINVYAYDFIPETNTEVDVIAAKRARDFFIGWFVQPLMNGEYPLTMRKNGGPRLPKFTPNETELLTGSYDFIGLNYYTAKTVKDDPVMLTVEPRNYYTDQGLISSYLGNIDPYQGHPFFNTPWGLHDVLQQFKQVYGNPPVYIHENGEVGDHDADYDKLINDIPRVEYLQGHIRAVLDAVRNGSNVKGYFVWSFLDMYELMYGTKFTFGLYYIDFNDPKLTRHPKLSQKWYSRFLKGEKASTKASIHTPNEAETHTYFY
Method: An enzyme reaction was carried out at 30° C. for 15 minutes in a reaction solution obtained by adding a citric acid buffer (pH 5.6) to a crude enzyme obtained from pink petals of a carnation (variety: “Beam Cherry”) (61 μg), cyanidin β-glucoside (200 μM), and a sugar donor (1-O-β-vanillyl glucose extracted from a carnation or any of synthesized 1-O-vanillyl glucose (in the α or β form), 1-O-isovanillyl glucose (in the α or β form), and 1-O-galloyl glucose (in the α or β form)) (500 μM) to a final volume of 30 μl. The reaction was terminated by adding a 20% phosphoric acid aqueous solution to the reaction liquid so as to result in a final phosphoric acid concentration of 1%, followed by centrifugation. The obtained supernatant was subjected to separation using an HPLC (Chromolith Speed ROD; 4.6×50 mm; Merck) with a linear gradient (5 minutes) of 18% to 28% liquid B containing eluent A (a 1.5% phosphoric acid aqueous solution) and eluent B (a 90% methanol aqueous solution) (flow rate: 3.0 ml/min; 520 nm), followed by analysis. The relative activity of the enzyme on each sugar donor was calculated based on the HPLC chromatogram area of a reaction product (cyanidin 3,5-O-β diglucoside) at a wavelength of 505 nm.

[3] = biological target: T3, enzyme purified from pink petals of a carnation (variety: "Beam Cherry") (glycosyltransferase) (Dianthus caryophyllus, UniProt E3W9M2); experiment: Relative activity of glycosyltransferase purified from carnation on each sugar donor (HPLC); assay type: biochemical; details: purified enzyme 135 ng, cyanidin 3-glucoside 200 μM, sugar donor 500 μM, citric acid buffer pH 5.6, 30° C., 15 minutes; HPLC area of cyanidin 3,5-O-β-diglucoside
T3 construct: the enzyme comprising 502 amino acid residues was translated, followed by amino acid removal via processing; from tissue; host or cells: petals of carnation, variety Beam Cherry
T3 sequence (E3W9M2 31-502): T2 sequence (E3W9M2 31-502)
Method: An enzyme reaction was carried out at 30° C. for 15 minutes using an enzyme (135 ng) purified from pink petals of a carnation (variety: “Beam Cherry”) by the method described in Example 2 ((1) and (2)), cyanidin 3-glucoside (200 μM), and a sugar donor (1-O-β-D-vanillyl glucose or any of 1-O-β-D-p-coumaryl glucose, 1-O-β-D-caffeyl glucose, 1-O-β-D-feruloyl glucose, and 1-O-β-D-sinapoyl glucose that had been enzymatically synthesized according to the method described in Matsuba Y et al., Plant Biotechnology vol. 25, No. 4 (2008) pp. 369-375) (500 μM) in a reaction solution adjusted to 30 μl with the addition of a citric acid buffer (pH 5.6). A 20% phosphoric acid aqueous solution was added to the reaction liquid so as to result in a final phosphoric acid concentration of 1%. Thus, the reaction was terminated, followed by centrifugation. The resulting supernatant was subjected to separation using a HPLC column (Chromolith SpeedROD, 4.6×50 mm, Merck), eluent A (a 1.5% phosphoric acid aqueous solution), and eluent B (a 90% methanol aqueous solution) with a linear gradient of 18% to 28% liquid B (flow rate: 3.0 ml/min, 520 nm) (5 minutes), followed by analysis. The relative activity of the enzyme on each sugar donor was determined by calculating the area of the reaction product (cyanidin 3,5-O-β-diglucoside) on an HPLC chromatogram at a wavelength of 505 nm.

SMILES | Recognition as sugar donor by delphinium glycosylation enzyme [1] | Relative activity of an enzyme on a sugar donor (when synthetic 1-O-β-vanillyl glucose is set as 100) [2] | Relative activity of an enzyme on a sugar donor (when synthetic 1-O-β-vanillyl glucose is set as 100) ([2]; listed as 1-O-β-vanillyl glucose (from carnation)) | Relative activity of an enzyme on a sugar donor (when synthetic 1-O-β-vanillyl glucose is set as 100) [3]
O=C(OC1OC(CO)C(O)C(O)C1O)c1ccc(O)cc1 (stereo not drawn) [1-O-β-p-hydroxybenzoyl glucose] | recognize 1-O-β-p-hydroxybenzoyl glucose as a sugar donor |  |  | 
COc1cc(C(=O)OC2OC(CO)C(O)C(O)C2O)ccc1O (stereo not shown) |  | 100 | 97.9 | 100
